Reference: paper PMC10353060, “A Chemical Chaperone Restores Connexin 26 Mutant Activity” (ACS Pharmacology & Translational Science, 2023)

Assays:
connexin 26 (Cx26) K188N = biological target: T1, connexin 26 (Cx26) K188N (Homo sapiens, UniProt P29033, K188N); assay: microscale thermophoresis (MST); format: binding; details: read-out: EC50
T1 construct: gene GJB2; purified recombinant connexin channel, His-tag Cy5 labeled

connexin 26 (Cx26) = biological target: T2, connexin 26 (Cx26) (Homo sapiens, UniProt P29033); assay: microscale thermophoresis (MST); format: binding; details: read-out: EC50
T2 construct: gene GJB2; purified recombinant WT connexin channel, His-tag Cy5 labeled

In the case of `O=C(Nc1ncc([C@H](c2ccccc2Cl)N2CC[C@@H](O)C2)s1)C1(c2ccc3c(c2)OCO3)CC1` [compound 3, 1-(benzo[d][1,3]dioxol-5-yl)-N-(5-((S)-(2-chlorophenyl)((R)-3-hydroxypyrrolidin-1-yl)methyl)thiazol-2-yl) cyclopropanecarboxamide], the Kd (connexin 26 (Cx26) K188N) is reported as 4.75 ± 1 µM and the Kd (connexin 26 (Cx26)) is reported as 19.3 ± 7.3 µM.
